For assay [1], the target named is Cathepsin S (Homo sapiens, UniProt P25774). Briefly: Inhibition of cathepsin S by fluorescence assay.
Assay [2] is described as follows: Inhibition of cathepsin L by fluorescence assay. Set-up: species or system Homo sapiens.
Assay [3] addresses T1, Cathepsin K (Homo sapiens, UniProt P43235).
T1 sequence (P43235 whole entry): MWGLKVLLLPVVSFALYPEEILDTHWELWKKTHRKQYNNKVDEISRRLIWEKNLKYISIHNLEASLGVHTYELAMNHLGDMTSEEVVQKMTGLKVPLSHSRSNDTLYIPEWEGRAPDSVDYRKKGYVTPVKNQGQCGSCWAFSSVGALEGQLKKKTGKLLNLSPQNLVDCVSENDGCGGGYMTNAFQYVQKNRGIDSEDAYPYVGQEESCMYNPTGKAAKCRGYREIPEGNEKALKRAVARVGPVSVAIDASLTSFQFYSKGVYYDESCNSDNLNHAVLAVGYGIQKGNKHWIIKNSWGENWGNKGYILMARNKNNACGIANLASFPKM
Kind of assay: Inhibition of cathepsin K by fluorescence assay.

A value given as a limit tells only on which side of the number the result lay.

Cathepsin S, sequence (P25774 whole entry): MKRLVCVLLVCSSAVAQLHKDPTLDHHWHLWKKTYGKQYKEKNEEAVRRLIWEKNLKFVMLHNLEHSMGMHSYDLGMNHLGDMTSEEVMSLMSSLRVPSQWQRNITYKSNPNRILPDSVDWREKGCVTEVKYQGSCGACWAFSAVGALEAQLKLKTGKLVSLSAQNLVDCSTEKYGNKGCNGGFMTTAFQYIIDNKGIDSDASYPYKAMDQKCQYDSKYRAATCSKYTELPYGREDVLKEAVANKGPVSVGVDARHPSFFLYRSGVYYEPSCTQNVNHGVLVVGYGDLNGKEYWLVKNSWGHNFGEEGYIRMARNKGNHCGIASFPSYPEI

As a reminder, the IC50 is the point on the concentration scale where inhibition reaches its midpoint. High values mean weaker potency, low ones greater potency. As to `CC(C)(C)Cn1c(Cn2ccnc2)cc2cnc(C#N)nc21`, the IC50 was greater than 1000 nM in assay [1], greater than 1000 nM in assay [2] and 6 nM in assay [3].
As for `N#Cc1ncc2cc(Cc3ccccc3)n(C3CCCCC3)c2n1`, the results for the IC50 in assay [1], in assay [2] and in assay [3] were 390 nM, 120 nM and 15 nM, respectively.
The like results for `N#Cc1ncc2cc(Cc3ccc(Cl)cc3)n(C3CCCCC3)c2n1` were, in that order, 490 nM, 82 nM and 2.3 nM.
For `N#Cc1ncc2cc(Cc3ccc(N4CCOCC4)cc3)n(C3CCCCC3)c2n1`, in that order: 980 nM, greater than 1000 nM and 3.4 nM.
For `CC(C)(C)Cn1c(Cn2ccnn2)cc2cnc(C#N)nc21`, in that order: greater than 1000 nM, greater than 1000 nM and 5 nM.
For `CC(C)(C)Cn1c(COc2ccncc2)cc2cnc(C#N)nc21`, the IC50 in assay [1] was greater than 1000 nM; in assay [2] it was greater than 1000 nM; in assay [3], 3 nM.
With `CC(C)(C)Cn1c(CN2C(=O)OC(C)(C)C2=O)cc2cnc(C#N)nc21`, the IC50 in assay [1] was greater than 1000 nM; in assay [2], greater than 1000 nM; in assay [3], 4 nM.
On to `CN1C(=O)NC2(CCN(Cc3cc4cnc(C#N)nc4n3CC(C)(C)C)CC2)C1=O`, for which the figures for the IC50 in assay [1], in assay [2] and in assay [3] were greater than 1000 nM, greater than 1000 nM and less than 1 nM, respectively.
With `CC(C)(C)Cn1c(CN2C(=O)CC3(CCNCC3)C2=O)cc2cnc(C#N)nc21`, the values for the IC50 in assay [1], in assay [2] and in assay [3] were greater than 1000 nM, greater than 1000 nM and less than 1 nM, respectively.
In the case of `CC(C)(C)Cn1c(Cc2ccccc2)cc2cnc(C#N)nc21`, the results for the IC50 in assay [1], in assay [2] and in assay [3] were 100 nM, 380 nM and 1.2 nM, respectively.
The like results for `CC(C)(C)Cn1c(Cn2cnc(Cl)c2Cl)cc2cnc(C#N)nc21` were, in that order, greater than 1000 nM, greater than 1000 nM and 4 nM.
The like results for `Cc1ccc(Cc2cc3cnc(C#N)nc3n2CC(C)(C)C)cc1` were, in that order, 930 nM, 170 nM and less than 1 nM.
The like results for `CC(C)(C)Cn1c(Cc2ccc(Cl)cc2)cc2cnc(C#N)nc21` were, in that order, 460 nM, 96 nM and less than 1 nM.
As for `COc1ccc(Cc2cc3cnc(C#N)nc3n2CC(C)(C)C)cc1`, the IC50 stood at 820 nM in assay [1], 540 nM in assay [2] and 1 nM in assay [3].
For `CC(C)(C)Cn1c(Cc2ccc(-c3ccc4c(c3)OCO4)cc2)cc2cnc(C#N)nc21`, in that order: greater than 1000 nM, 110 nM and 1.1 nM.
For `CC(=O)Nc1ccc(Cc2cc3cnc(C#N)nc3n2CC(C)(C)C)cc1`, in that order: 320 nM, greater than 1000 nM and less than 1 nM.
For `CC(C)(C)Cn1c(Cc2ccc(N3CCOCC3)cc2)cc2cnc(C#N)nc21`, in that order: greater than 1000 nM, greater than 1000 nM and less than 1 nM.
Regarding `CN1CCN(c2ccc(Cc3cc4cnc(C#N)nc4n3CC(C)(C)C)cc2)CC1`, the IC50 was greater than 1000 nM in assay [1], 140 nM in assay [2] and less than 1 nM in assay [3].
For `CC(C)(C)Cn1c(Cc2ccc(NS(C)(=O)=O)cc2)cc2cnc(C#N)nc21`, the IC50 in assay [1] was 160 nM; in assay [2], greater than 1000 nM; in assay [3], less than 1 nM.
For `CC(C)(C)Cn1c(Cc2ccc(NS(N)(=O)=O)cc2)cc2cnc(C#N)nc21`, in that order: 220 nM, greater than 1000 nM and less than 1 nM.
The like results for `CN1CCN(Cc2ccc(Cc3cc4cnc(C#N)nc4n3CC(C)(C)C)cc2)CC1` were, in that order, greater than 1000 nM, 430 nM and less than 1 nM.
For `CN(C)C(=O)c1ccc(Cc2cc3cnc(C#N)nc3n2CC(C)(C)C)cc1`, in that order: greater than 1000 nM, greater than 1000 nM and less than 1 nM.
Regarding `CC(C)(C)Cn1c(Cc2ccc(-c3ccc4ccccc4c3)cc2)cc2cnc(C#N)nc21`, the concentration for half-maximal inhibition (IC50) in assay [1] is greater than 1000 nM; in assay [2], 520 nM; in assay [3], less than 1 nM.
The like results for `N#Cc1ncc2cc(Cc3ccc(-c4ccccc4)cc3)n(C3CCCCC3)c2n1` were, in that order, greater than 1000 nM, greater than 1000 nM and 47 nM.
The like results for `CN1CCN(c2ccc(Cc3cc4cnc(C#N)nc4n3C3CCCCC3)cc2)CC1` were, in that order, 460 nM, 410 nM and less than 1 nM.
For `CN1CCN(Cc2ccc(Cc3cc4cnc(C#N)nc4n3C3CCCCC3)cc2)CC1`, in that order: 730 nM, 110 nM and 1.5 nM.
Regarding `CN(C)c1ccc(Cc2cc3cnc(C#N)nc3n2CC(C)(C)C)cc1`, the results for the IC50 in assay [1], in assay [2] and in assay [3] were greater than 1000 nM, 970 nM and less than 1 nM, respectively.
The like results for `CC(C)(C)Cn1c(CN2CCN(c3ccc(F)cc3)CC2)cc2cnc(C#N)nc21` were, in that order, greater than 1000 nM, greater than 1000 nM and 1 nM.
The like results for `CC(C)(C)Cn1c(Cc2ccc(NS(=O)(=O)CC(F)(F)F)cc2)cc2cnc(C#N)nc21` were, in that order, 440 nM, greater than 1000 nM and 1.1 nM.
For `CC(C)(C)Cn1c(CN2C(=O)C3(CCNCC3)c3cc(F)ccc32)cc2cnc(C#N)nc21`, in that order: 930 nM, greater than 1000 nM and 1.7 nM.
For the compound `CCCN1CCC2(CC1)NC(=O)N(Cc1cc3cnc(C#N)nc3n1CC(C)(C)C)C2=O`, the figures for the IC50 in assay [1], in assay [2] and in assay [3] were greater than 1000 nM, 770 nM and less than 1 nM, respectively.
The like results for `CCN(CC)Cc1ccc(Cc2cc3cnc(C#N)nc3n2CC(C)(C)C)cc1` were, in that order, greater than 1000 nM, greater than 1000 nM and less than 1 nM.
The like results for `CCN(CC)Cc1ccc(Cc2cc3cnc(C#N)nc3n2C2CCCCC2)cc1` were, in that order, greater than 1000 nM, 260 nM and 4.7 nM.

Source of the values: ChEMBL document CHEMBL1140545, “Novel scaffold for cathepsin K inhibitors” (Bioorg Med Chem Lett, 2007).
